In patent US20230146675A1, “PYRIMIDO[5,4-d]PYRIMIDINE DERIVATIVES AS ENT INHIBITORS FOR THE TREATMENT OF CANCERS, AND COMBINATION THEREOF WITH ADENOSINE RECEPTOR ANTAGONISTS” (ITEOS BELGIUM SA, priority 2020, published 2023) one finds IC50 data, which are given here for 25 compounds.

The target in this experiment is T1, human ENT1 (Homo sapiens, UniProt Q99808).
T1 sequence (Q99808 1-456): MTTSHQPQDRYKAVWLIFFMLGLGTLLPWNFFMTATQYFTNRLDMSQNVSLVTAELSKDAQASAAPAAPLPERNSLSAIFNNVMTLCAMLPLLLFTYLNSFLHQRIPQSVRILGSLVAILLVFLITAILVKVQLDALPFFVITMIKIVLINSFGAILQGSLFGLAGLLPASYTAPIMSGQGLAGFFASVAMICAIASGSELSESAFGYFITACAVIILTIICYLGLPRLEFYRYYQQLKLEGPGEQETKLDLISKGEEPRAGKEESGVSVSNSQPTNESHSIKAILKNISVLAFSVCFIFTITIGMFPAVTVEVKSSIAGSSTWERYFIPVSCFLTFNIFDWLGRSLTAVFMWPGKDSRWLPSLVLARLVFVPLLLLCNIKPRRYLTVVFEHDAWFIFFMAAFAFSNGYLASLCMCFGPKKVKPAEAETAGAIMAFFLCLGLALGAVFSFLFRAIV
Kind of experiment: ENT1 binding assay (competition with Sahenta-DY647 on JAR cells). Further details: JAR cells expressing ENT1 were bought from ATCC; host or cells: JAR cells. As to conditions: binned IC50. In short, it runs like this: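 JAR cells were incubated with test compounds and the fluorescent ligand Sahenta-DY647 in competition. Plates were washed twice by centrifugation (4 min, 400 rcf, 4 °C). Binding potency was derived from the final fluorescence.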
The IC50 is the midpoint of a concentration-inhibition curve. Read a low IC50 as greater potency. Compound `COCCN(CCOC)c1nc(N2CCc3cnn(C)c3C2)c2nc(N(CCOC)CCOC)nc(N3CCN(C)C(=O)C3)c2n1` [Compound 266, 4-(2,6-bis(bis(2-methoxyethyl)amino)-8-(1-methyl-1,4,5,7-tetrahydro-6H-pyrazolo[3,4-c]pyridin-6-yl)pyrimido[5,4-d]pyrimidin-4-yl)-1-methylpiperazin-2-one] showed an IC50 of less than 100 nM.
As for `CCCN(C)c1nc(N(CCOC)CCOC)nc2c(N3CCN(C)C(=O)C3)nc(N(CCOC)CCOC)nc12` [Compound 191, 4-(2,6-bis(bis(2-methoxyethyl)amino)-8-(methyl(propyl)amino)pyrimido[5,4-d]pyrimidin-4-yl)-1-methylpiperazin-2-one], the figure is 100 to 500 nM; as for `COCCN(CCOC)c1nc(N2CCC(OC)CC2)c2nc(N(CCOC)CCOC)nc(NCc3ccncc3)c2n1` [Compound 61, N2,N2,N6,N6-tetrakis(2-methoxyethyl)-8-(4-methoxypiperidin-1-yl)-N4-(pyridin-4-ylmethyl)pyrimido[5,4-d]pyrimidine-2,4,6-triamine], 500 to 1000 nM; as for `COCCN(CCOC)c1nc(N2CCC(OC)CC2)c2nc(N3CCn4ncnc4C3)nc(N3CCN(C)C(=O)C3)c2n1` [Compound 282, 4-(6-(bis(2-methoxyethyl)amino)-2-(5,6-dihydro-[1,2,4]triazolo[1,5-a]pyrazin-7(8H)-yl)-8-(4-methoxypiperidin-1-yl)pyrimido[5,4-d]pyrimidin-4-yl)-1-methylpiperazin-2-one], 100 to 500 nM.
In the case of `COCCN(CCOC)c1nc(N2CCC(OC)CC2)c2nc(N(CCOC)CCOC)nc(N3CCCOCC3)c2n1` [Compound 79, N2,N2,N6,N6-tetrakis(2-methoxyethyl)-4-(4-methoxypiperidin-1-yl)-8-(1,4-oxazepan-4-yl)pyrimido[5,4-d]pyrimidine-2,6-diamine], the IC50 is less than 100 nM.
In turn, `COCCN(CCOC)c1nc(N2CCN(C)C(=O)C2)c2nc(N3CCC(S(C)(=O)=O)CC3)nc(N3CCC(OC)CC3)c2n1` [Compound 292, 4-(2-(bis(2-methoxyethyl)amino)-8-(4-methoxypiperidin-1-yl)-6-(4-(methyisulfonyl)piperidin-1-yl)pyrimido[5,4-d]pyrimidin-4-yl)-1-methylpiperazin-2-one] showed an IC50 of 100 to 500 nM.
`CCN(CCN1CCCCC1)c1nc(N2CCC(OC)CC2)c2nc(N(CCOC)CCOC)nc(N3CCC(OC)CC3)c2n1` [Compound 133, N2-ethyl-N6,N6-bis(2-methoxyethyl)-4,8-bis(4-methoxypiperidin-1-yl)-N2-(2-(piperidin-1-yl)ethyl)pyrimido[5,4-d]pyrimidine-2,6-diamine] came in with an IC50 of 500 to 1000 nM.
Under `COCCN(CCOC)c1nc(N2CCC(F)C2)c2nc(N(CCOC)CCOC)nc(N3CCC(OC)CC3)c2n1` (stereo not shown) [Compound 104, 4-(3-fluoropyrrolidin-1-yl)-N2,N2,N6,N6-tetrakis(2-methoxyethyl)-8-(4-methoxypiperidin-1-yl)pyrimido[5,4-d]pyrimidine-2,6-diamine] stands 100 to 500 nM; under `COCCN(CCOC)c1nc(N2CCn3ncnc3C2)c2nc(N(CCOC)CCOC)nc(N3CCn4ncnc4C3)c2n1` [Compound 9, 4,8-bis(5,6-dihydro-[1,2,4]triazolo[1,5-a]pyrazin-7(8H)-yl)-N2,N2,N6,N6-tetrakis(2-methoxyethyl)pyrimido[5,4-d]pyrimidine-2,6-diamine], 100 to 500 nM.
On to `COCCN(CCOC)c1nc(N2CCC(OC)CC2)c2nc(N(CCOC)CCOC)nc(NCc3ccc(OC)c(OC)c3)c2n1` [Compound 170, N4-(3,4-dimethoxybenzyl)-N2,N2,N6,N6-tetrakis(2-methoxyethyl)-8-(4-methoxypiperidin-1-yl)pyrimido[5,4-d]pyrimidine-2,4,6-triamine], for which the concentration for half-maximal inhibition (IC50) is less than 100 nM.
Under `COCCN(CCOC)c1nc(N2CCN(c3nccs3)CC2)c2nc(N(CCOC)CCOC)nc(N3CCN(c4nccs4)CC3)c2n1` [Compound 1, N2,N2,N6,N6-tetrakis(2-methoxyethyl)-4,8-bis(4-(thiazol-2-yl)piperazin-1-yl)pyrimido[5,4-d]pyrimidine-2,6-diamine] stands less than 100 nM.
Under `COCCN(CCOC)c1nc(N2CCN(C)C(=O)C2)c2nc(N3CCn4nncc4C3)nc(N3CCC(OC)CC3)c2n1` [Compound 288, 4-(2-(bis(2-methoxyethyl)amino)-6-(6,7-dihydro-[1,2,3]triazolo[1,5-a]pyrazin-5(4H)-yl)-8-(4-methoxypiperidin-1-yl)pyrimido[5,4-d]pyrimidin-4-yl)-1-methylpiperazin-2-one] stands 100 to 500 nM; under `CCCN(C)c1nc(N(CCOC)CCOC)nc2c(N3CC(O)(C(F)(F)F)C3)nc(N(CCOC)CCOC)nc12` [Compound 13, 1-(2,6-bis(bis(2-methoxyethyl)amino)-8-(methyl(propyl)amino)pyrimido[5,4-d]pyrimidin-4-yl)-3-(trifluoromethyl)azetidin-3-ol], less than 100 nM; under `COCCN(CCOC)c1nc(N2CCC(OC)CC2)c2nc(N(CCOC)CCOC)nc(NCc3cnccn3)c2n1` [Compound 84, N2,N2,N6,N6-tetrakis(2-methoxyethyl)-8-(4-methoxypiperidin-1-yl)-N4-(pyrazin-2-ylmethyl)pyrimido[5,4-d]pyrimidine-2,4,6-triamine], 500 to 1000 nM.
Under `COCCN(CCOC)c1nc(N2CCC(OC)CC2)c2nc(N(CCOC)CCOC)nc(NCc3ccc(Cl)c(Cl)c3)c2n1` [Compound 137, N4-(3,4-dichlorobenzyl)-N2,N2,N6,N6-tetrakis(2-methoxyethyl)-8-(4-methoxypiperidin-1-yl)pyrimido[5,4-d]pyrimidine-2,4,6-triamine] stands less than 100 nM; under `COCCN(CCOC)c1nc(N2CCNC(=O)C2)c2nc(N(CCOC)CCOC)nc(N3CCC(OC)CC3)c2n1` [Compound 70, 4-(2,6-bis(bis(2-methoxyethyl)amino)-8-(4-methoxypiperidin-1-yl)pyrimido[5,4-d]pyrimidin-4-yl)piperazin-2-one], 500 to 1000 nM; under `COCCN(CCOC)c1nc(N2CCN(c3ncn(C)n3)CC2)c2nc(N(CCOC)CCOC)nc(N(C)Cc3ccc(F)c(F)c3)c2n1` [Compound 247, N4-(3,4-difluorobenzyl)-N2,N2,N6,N6-tetrakis(2-methoxyethyl)-N4-methyl-8-(4-(1-methyl-1H-1,2,4-triazol-3-yl)piperazin-1-yl)pyrimido[5,4-d]pyrimidine-2,4,6-triamine], 100 to 500 nM.
For `COCCOC1CCN(c2nc(N(CCOC)CCOC)nc3c(N4CCC(OC)CC4)nc(N(CCOC)CCOC)nc23)CC1` [Compound 202, 4-(4-(2-methoxyethoxy)piperidin-1-yl)-N2,N2,N6,N6-tetrakis(2-methoxyethyl)-8-(4-methoxypiperidin-1-yl)pyrimido[5,4-d]pyrimidine-2,6-diamine], the IC50 is 500 to 1000 nM.
The compound `COCCN(CCOC)c1nc(N2CCC(OC)CC2)c2nc(N(CCOC)CCOC)nc(NCc3cnc(Cl)s3)c2n1` [Compound 160, N4-((2-chlorothiazol-5-yl)methyl)-N2,N2,N6,N6-tetrakis(2-methoxyethyl)-8-(4-methoxypiperidin-1-yl)pyrimido[5,4-d]pyrimidine-2,4,6-triamine] returned a half-inhibitory concentration (IC50) of 500 to 1000 nM.
Under `COCCN(CCOC)c1nc(N2CCN(C)C(=O)C2)c2nc(N3CCN(C(C)=O)CC3)nc(N3CCC(OC)CC3)c2n1` [Compound 281, 4-(6-(4-acetylpiperazin-1-yl)-2-(bis(2-methoxyethyl)amino)-8-(4-methoxypiperidin-1-yl)pyrimido[5,4-d]pyrimidin-4-yl)-1-methylpiperazin-2-one] stands 500 to 1000 nM; under `COCCN(CCOC)c1nc(N2CCN(C)C(=O)C2)c2nc(N(CCOC)CCOC)nc(N(C)Cc3cccc(C(N)=O)c3)c2n1` [Compound 240, 3-(((2,6-bis(bis(2-methoxyethyl)amino)-8-(4-methyl-3-oxopiperazin-1-yl)pyrimido[5,4-d]pyrimidin-4-yl)(methyl)amino)methyl)benzamide], 100 to 500 nM.
In turn, `COCCN(CCOC)c1nc(N2CCC(OC)CC2)c2nc(N3CCn4cncc4C3)nc(N3CCN(C)C(=O)C3)c2n1` [Compound 297, 4-(6-(bis(2-methoxyethyl)amino)-2-(5,6-dihydroimidazo[1,5-a]pyrazin-7(8H)-yl)-8-(4-methoxypiperidin-1-yl)pyrimido[5,4-d]pyrimidin-4-yl)-1-methylpiperazin-2-one] had an IC50 of 100 to 500 nM.
On to `COCCN(CCOC)c1nc(N2CCC(OC)CC2)c2nc(N(CCOC)CCOC)nc(N3CCC(O)CC3)c2n1` [Compound 71, 1-(2,6-bis(bis(2-methoxyethyl)amino)-8-(4-methoxypiperidin-1-yl)pyrimido[5,4-d]pyrimidin-4-yl)piperidin-4-ol], for which the IC50 fell in the range of 100 to 500 nM.
`COCCN(CCOC)c1nc(N2CCC(OC)CC2)c2nc(N(CCOC)CCOC)nc(NCc3cccc(F)c3)c2n1` [Compound 142, N4-(3-fluorobenzyl)-N2,N2,N6,N6-tetrakis(2-methoxyethyl)-8-(4-methoxypiperidin-1-yl)pyrimido[5,4-d]pyrimidine-2,4,6-triamine] displayed an IC50 of less than 100 nM.
As for `COCCN(CCO)c1nc(N2CCN(C)C(=O)C2)c2nc(N(CCOC)CCOC)nc(N3CCC(OC)CC3)c2n1` [Compound 275, 4-(6-(bis(2-methoxyethyl)amino)-2-((2-hydroxyethyl)(2-methoxyethyl)amino)-8-(4-methoxypiperidin-1-yl)pyrimido[5,4-d]pyrimidin-4-yl)-1-methylpiperazin-2-one], the figure is less than 100 nM.
